Test results as given in PMC9415015, “CK2 Inhibition and Antitumor Activity of 4,7-Dihydro-6-nitroazolo[1,5-a]pyrimidines” (Molecules, 2022).

Assays:
[1] = Solubility noted during the cytotoxicity study; conditions: cytotoxicity study limited because of it
human recombinant CK2α1 = target: T1, human recombinant CK2α1 (Homo sapiens, UniProt P68400); assay: CK2 ADP-Glo kinase assay; assay type: biochemical; conditions: for Effect on CK2 activity in initial screening (in words): initial screening at 50 μM
T1 construct: purchased Promega V4482
T1 sequence (P68400 whole entry): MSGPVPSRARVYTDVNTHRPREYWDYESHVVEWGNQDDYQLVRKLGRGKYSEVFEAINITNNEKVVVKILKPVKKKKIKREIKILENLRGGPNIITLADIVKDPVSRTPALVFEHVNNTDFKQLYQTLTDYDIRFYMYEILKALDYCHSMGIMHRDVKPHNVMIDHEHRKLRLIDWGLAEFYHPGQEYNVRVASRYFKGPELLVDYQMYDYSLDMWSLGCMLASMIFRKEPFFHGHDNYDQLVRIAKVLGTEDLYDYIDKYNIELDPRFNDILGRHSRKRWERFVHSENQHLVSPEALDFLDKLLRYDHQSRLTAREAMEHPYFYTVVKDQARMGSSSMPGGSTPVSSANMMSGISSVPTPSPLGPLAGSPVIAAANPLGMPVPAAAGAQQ
Description: Kinase activity was determined using the enzyme system CK2α1 (Promega V4482, Madison, WI, USA) and the ADP-Glo^TM kit (Promega V9101, Madison, WI, USA) in white 96-well plates (Nunc U96 Microwell 267350, Denmark). The reaction was carried out using 50 ng/well of N-GST labeled human recombinant CK2α1, 0.1 µg/µL bovine casein as a substrate, 10 μM ATP in 40 mM Tris buffer solution (pH 7.50) containing 20 mM MgCl2, 0.1 mg/mL of BSA, and 50 μM of DTT. Test compounds were added to 1.25% DMSO (final concentration 0.25%) and preincubated with kinase for 10 min. The reaction was carried out for 60 min at 25 °C in a thermostatically controlled PST-60HL shaker (Biosan. […], Latvia). ATP-dependent luminescence was measured at an integration time of 1000 ms using the Infinite M200 PRO microplate reader (Tecan. Austria). The ATP-competitive inhibitor Staurosporin (CAS 62996–74-1, Alfa Aesar J62837, 99+%) was used as a positive control. The experiments were performed in two parallels.

Hek-293 cells = assay: MTT test, human embryonic kidney cells; assay type: cell-based; conditions: 72 h incubation
Description: (§1) The studies were carried out on cultured cells of human glioblastoma (A-172, ATCC CRL 1620), human osteosarcoma (Hos, ATCC CRL 1543), human embryonic rhabdomyosarcoma (Rd, ATCC CRL 136), and human embryonic kidney 293 cells (Hek-293, ATCC CRL 1573) obtained from the Shared research facility “Vertebrate cell culture collection” (Institute of Cytology RAS, Saint-Petersburg, Russia). The cells were cultured using DMEM / F-12 medium containing 10% fetal bovine serum at 37°C, 5% CO2, and 98% humidity. Subculturing was performed using 0.25% trypsin solution when the culture reached ≥90% confluency.
(§2) The compounds were dissolved in DMSO. The solutions were diluted with DMEM/F-12 culture medium with 10% fetal bovine serum to the studied concentrations: 8, 16, 32, 64, 128, 256, 512, and 1024 µM. […] Cisplatin (cPt) was used as a positive control.
(§3) Cells were seeded in 96-well plates at a concentration of 4 × 10^3 cells per well. After 24 h, test compounds were added to the wells in a given concentration range. Then the cells were incubated for 72 h, after which a solution of MTT (3-(4,5-dimethyl-2-thiazolyl)-2,5-diphenyl-2H-tetrazolium bromide) was added to the cultures at 20 µL (5 mg/mL) to the well. After 2.5 h, the medium was removed from the wells and 200 µL of a mixture of DMSO/i-PrOH 1/1 was added. Optical density was measured on a plate spectrophotometer at a wavelength of 570 nm.
(§4) Statistical data processing was carried out in the RStudio program (Version 1.4.1106 © […] RStudio, PBC, Boston, MA, USA) using the R package (version 4.1.2). The cytotoxicity index (IC50) was calculated by plotting dose–response curves using the “drc” package.

Rd cells = assay: MTT test, embryonic rhabdomyosarcoma cells; assay type: cell-based, human; conditions: for Cytotoxicity index IC50 ± SE, Rd: MTT, 72 h incubation
Description: as §1, §2, §3, §4

A-172 cells = assay: MTT test, glioblastoma cells; assay type: cell-based, human; conditions: for Cytotoxicity index IC50 ± SE, A-172: MTT, 72 h incubation
Description: as §1, §2, §3, §4

Hos cells = assay: MTT test, osteosarcoma cells; assay type: cell-based, human; conditions: for Cytotoxicity index IC50 ± SE, Hos: MTT, 72 h incubation
Description: as §1, §2, §3, §4

[2] = test system: A-172, Rd, Hos and Hek-293 cells; assay: MTT test, all four cell lines together; assay type: cell-based; conditions: Homo sapiens, read-out: IC50 in all cases
Description: as §1, §2
(§5) Cells were seeded in 96-well plates at a concentration of 4 × 10^3 cells per well. After 24 h, test compounds were added to the wells in a given concentration range. […] Optical density was measured on a plate spectrophotometer at a wavelength of 570 nm.
as §4

[3] = test system: tumor cells A-172, Rd, and Hos; assay: MTT test, tumor cell lines together; assay type: cell-based; conditions: Homo sapiens, A 172, MTT, across A-172, Rd, 50 µM bound holds 'mostly'
Description: as §1, §2, §5, §4

| Compound | Effect on CK2 activity in initial screening (in words) (human recombinant CK2α1) | IC50 [3] [µM] | Solubility (in words) [1] | Cytotoxicity index IC50 ± SE, Hek-293 (Hek-293 cells) [µM] | melting point | Cytotoxicity index IC50 ± SE, Rd (Rd cells) [µM] | Cytotoxicity index IC50 ± SE, A-172 (A-172 cells) [µM] | inhibition at 50 µM (human recombinant CK2α1; 50 μM compound, 10 μM ATP, n.a. = not active, read-out: CK2 Inhibition at 50 μM, m ± SD (%)) [%] | Cytotoxicity index IC50 ± SE, Hos (Hos cells) [µM] | IC50 [2] [µM] | Selectivity ratio SR (RD) (Rd cells; normal/cancer cell (Hek-293 vs Rd)) | Selectivity ratio SR (A-172) (A-172 cells; normal/cancer cell (Hek-293 vs A-172)) | Selectivity ratio SR (HOS) (Hos cells; normal/cancer cell (Hek-293 vs Hos)) |
| --- | --- | --- | --- | --- | --- | --- | --- | --- | --- | --- | --- | --- | --- |
| O=[N+]([O-])C1=CNc2ccnn2C1c1ccccc1 (stereo not shown) [Compound 5a, 6-Nitro-7-phenyl-4,7-dihydropyrazolo[1,5-a]pyrimidine] | paradoxically enhance CK2 activity |  | low solubility |  |  |  |  |  |  |  |  |  |  |
| CC1=C([N+](=O)[O-])C(c2ccc([N+](=O)[O-])cc2)n2nccc2N1 (stereo not shown) [Compound 5c, 6-Nitro-5-methyl-7-(4ʹ-nitrophenyl)-4,7-dihydropyrazolo[1,5-a]pyrimidine] | paradoxically enhance CK2 activity |  | low solubility |  |  |  |  |  |  |  |  |  |  |
| CCC1=C([N+](=O)[O-])C(c2ccc(OC)cc2)n2ncc(C#N)c2N1 (stereo not shown) [Compound 5i, 3-Cyano-5-ehtyl-6-Nitro-7-(4ʹ-metoxyphenyl)-4,7-dihydropyrazolo[1,5-a]pyrimidine] |  |  |  | 69.52 ± 8.69 | 249 °C (dec.) | 105.10 ± 10.70 | 145.19 ± 8.96 | 3.66 ± 37.6 | 88.44 ± 5.85 |  |  |  |  |
| CCC1=C([N+](=O)[O-])C(c2ccc(O)c(OC)c2)n2ncc(C#N)c2N1 (stereo not shown) [Compound 5j, 3-Cyano-5-Ethyl-6-nitro-7-(3ʹ-methoxy-4ʹ-hydroxyphenyl)-4,7-dihydropyrazolo[1,5-a]pyrimidine] |  |  |  | 581.39 ± 43.90 |  | 673.44 ± 20.70 | 566.09 ± 17.12 |  | 522.38 ± 16.16 | > 400 |  |  |  |

Continued, in another order:

| Effect on CK2 activity in initial screening (in words) (human recombinant CK2α1) | IC50 [3] [µM] | Compound | Solubility (in words) [1] | Cytotoxicity index IC50 ± SE, Hek-293 (Hek-293 cells) [µM] | melting point | Cytotoxicity index IC50 ± SE, Rd (Rd cells) [µM] | Cytotoxicity index IC50 ± SE, A-172 (A-172 cells) [µM] | inhibition at 50 µM (human recombinant CK2α1; 50 μM compound, 10 μM ATP, n.a. = not active, read-out: CK2 Inhibition at 50 μM, m ± SD (%)) [%] | Cytotoxicity index IC50 ± SE, Hos (Hos cells) [µM] | IC50 [2] [µM] | Selectivity ratio SR (RD) (Rd cells; normal/cancer cell (Hek-293 vs Rd)) | Selectivity ratio SR (A-172) (A-172 cells; normal/cancer cell (Hek-293 vs A-172)) | Selectivity ratio SR (HOS) (Hos cells; normal/cancer cell (Hek-293 vs Hos)) |
| --- | --- | --- | --- | --- | --- | --- | --- | --- | --- | --- | --- | --- | --- |
| paradoxically enhance CK2 activity |  | O=[N+]([O-])C1=CNc2ncnn2C1c1ccccc1 (stereo not shown) [Compound 6a, 6-Nitro-7-phenyl-4,7-dihydro-1,2,4-triazolo[1,5-a]pyrimidine] |  | 1131.79 ± 77.86 |  | 448.21 ± 22.53 | 434.08 ± 18.02 |  | 542.85 ± 21.45 | > 400 |  |  |  |
| paradoxically enhance CK2 activity | ≤ 50 | CC1=C([N+](=O)[O-])C(c2ccccc2)n2nc(C(F)(F)F)nc2N1 (stereo not shown) [Compound 6d, 5-Methyl-6-nitro-7-phenyl-2-trifluoromethyl-4,7-dihydro-1,2,4-triazolo[1,5-a]pyrimidine] |  | 50.07 ± 4.43 | 233 to 235 °C | 37.28 ± 3.77 | 27.49 ± 1.67 |  | 23.31 ± 1.84 |  | 1.3 | 1.8 | 2.1 |
